From ChEMBL document CHEMBL4043102, “Novel 4-acetamide-2-alkylthio-N-acetanilides resembling nimesulide: Synthesis, cell viability evaluation and in silico studies” (Bioorg Med Chem, 2017)
Calls of active or inactive are those of the source. The rule behind the calls is not given here.

Experiments:
MCF7 [1] = assay: Antiproliferative activity against human MCF7 cells assessed as cell proliferation at 30 uM after 48 hrs by MTT assay relative to control; assay type: functional; settings: MCF7, 48 h, read-out: Activity
LNCaP [2] = assay: Antiproliferative activity against human LNCAP cells after 48 hrs by MTT assay; assay type: functional, cell-based
MCF7 [3] = assay: Antiproliferative activity against human MCF7 cells after 48 hrs by MTT assay; assay type: functional, cell-based; settings: MCF7, 48 h
[4] = Antiproliferative activity against NHDF assessed as cell proliferation at 30 uM after 48 hrs by MTT assay relative to control; assay type: cell-based; settings: human, NHDF cells; read-out: Activity
LNCaP [5] = assay: Antiproliferative activity against human LNCAP cells assessed as cell proliferation at 30 uM after 48 hrs by MTT assay relative to control; assay type: functional; settings: read-out: Activity
MCF7 [6] = assay: Induction of morphological changes in human MCF7 cells assessed as cell rounding at 30 uM after 24 hrs by propidium iodide staining-based microscopic analysis; assay type: functional
MCF7 [7] = assay: Induction of apoptosis in human MCF7 cells assessed as reduction in viable cells at 30 uM after 24 hrs by propidium iodide staining based FACS analysis; assay type: functional, cell-based
MCF7 [8] = assay: Induction of apoptosis in human MCF7 cells assessed as reduction in viable cells at 30 uM after 24 hrs by propidium iodide staining-based microscopic analysis; assay type: functional, cell-based
MCF7 [9] = assay: Antiproliferative activity against human MCF7 cells assessed as cell proliferation at 1 mM after 48 hrs by MTT assay relative to control; settings: MCF7, 48 h, read-out: Activity
LNCaP [10] = assay: Antiproliferative activity against human LNCAP cells assessed as cell proliferation at 1 mM after 48 hrs by MTT assay relative to control; settings: read-out: Activity
[11] = Antiproliferative activity against NHDF assessed as cell proliferation at 1 mM after 48 hrs by MTT assay relative to control; settings: human, NHDF cells

Compound `CCSc1ccccc1N(CC)C(C)=O` has a growth at 30 µM (MCF7 [1]) of 99.5%.
For `CCN(C(C)=O)c1ccccc1SCc1ccccc1`, the growth at 30 µM (MCF7 [1]) was 95.3%.
Work on `CCCSc1ccccc1N(CC)C(C)=O` yielded a growth at 30 µM (MCF7 [1]) of 89.1%.
With `CCOc1ccccc1N(CC)C(C)=O` the growth at 30 µM (MCF7 [1]) was 93.5%.
In the case of `CCSc1ccccc1N(Cc1ccccc1C)C(C)=O`, the growth at 30 µM (MCF7 [1]) is reported as 77%.
`CC(=O)Nc1ccc(N(CC2CCCCC2)C(C)=O)c(SCC2CCCCC2)c1` gave an IC50 (LNCaP [2]) of 9.16 µM, an IC50 (MCF7 [3]) of 16.6 µM and a viability at 48 h, 30 µM [4] of 86.2%. The growth at 30 µM (LNCaP [5]) was 29.7%, the growth at 30 µM (MCF7 [1]) was 7.52% and the Activity (MCF7 [6]) was “Active”. The Activity (MCF7 [7]) was “Active”.
With `CS(=O)(=O)Nc1ccc([N+](=O)[O-])cc1Oc1ccccc1` [NIMESULIDE] the Activity (MCF7 [8]) was “Active”, the IC50 (LNCaP [2]) was 26.7 µM and the IC50 (MCF7 [3]) was over 100 µM. For the same compound, the viability at 48 h, 30 µM [4] was 89.3%, the growth at 30 µM (LNCaP [5]) was 73.8% and the growth at 30 µM (MCF7 [1]) was 42.5%. The Activity (MCF7 [7]) was “Active”.
In the case of `CC(=O)Nc1ccc(N(Cc2ccc(C)cc2C)C(C)=O)c(SCc2ccc(C)cc2C)c1`, the IC50 (MCF7 [3]) is reported as 7.33 µM, the viability at 48 h, 30 µM [4] is reported as 89.9% and the growth at 30 µM (LNCaP [5]) is reported as 48%. For the same compound, the growth at 30 µM (MCF7 [1]) was 15.3%.
For `CC(=O)N(Cc1ccccc1)c1ccccc1SCc1ccccc1`, the growth at 30 µM (MCF7 [1]) was 79.8%.
`CCN(C(C)=O)c1ccccc1OCc1ccccc1` gave a growth at 30 µM (MCF7 [1]) of 88.8%.
Work on `OO` [HYDROGEN PEROXIDE] yielded a growth at 1000 µM (MCF7 [9]) of 4.44%, a growth at 1000 µM (LNCaP [10]) of 2.15% and a viability at 48 h, 1000 µM [11] of 15.5%.
`CCCCCCN(C(C)=O)c1ccccc1OCCC` gave a growth at 30 µM (MCF7 [1]) of 51.5%.
Compound `CCSc1ccccc1N(Cc1ccccc1)C(C)=O` has a growth at 30 µM (MCF7 [1]) of 89.4%.
`CCCN(C(C)=O)c1ccccc1SC` showed a growth at 30 µM (MCF7 [1]) of 95.3%.
In the case of `CC(=O)Nc1ccc(N(Cc2ccc(C)cc2C)C(C)=O)c(SCC2CCCCC2)c1`, the IC50 (MCF7 [3]) is reported as 25.2 µM, the viability at 48 h, 30 µM [4] is reported as 80.5% and the growth at 30 µM (LNCaP [5]) is reported as 40.4%. The growth at 30 µM (MCF7 [1]) was 13.6%.
With `CCCCCCSc1cc(NC(C)=O)ccc1N(CCCCCC)C(C)=O` the IC50 (MCF7 [3]) was 24.9 µM, the viability at 48 h, 30 µM [4] was 93.6% and the growth at 30 µM (LNCaP [5]) was 73.9%. The growth at 30 µM (MCF7 [1]) was 36.6%.
For `CCCOc1ccccc1N(CC)C(C)=O`, the growth at 30 µM (MCF7 [1]) was 92.5%.
`CCSc1ccccc1N(CC)CC` showed a growth at 30 µM (MCF7 [1]) of 99.7%.
`CCCCCCSc1cc(NC(C)=O)ccc1N(Cc1ccc(C)cc1C)C(C)=O` showed an IC50 (LNCaP [2]) of 13.9 µM, an IC50 (MCF7 [3]) of 21.6 µM and a viability at 48 h, 30 µM [4] of 80.1%. For the same compound, the growth at 30 µM (LNCaP [5]) was 19.1%, the growth at 30 µM (MCF7 [1]) was 6.86% and the Activity (MCF7 [6]) was “Active”. The Activity (MCF7 [7]) was “Active”.
With `CCN(CC)c1ccccc1SC` the growth at 30 µM (MCF7 [1]) was 97.2%.
`CCCCCCSc1cc(NC(C)=O)ccc1N(CC1CCCCC1)C(C)=O` showed an IC50 (MCF7 [3]) of 21 µM, a viability at 48 h, 30 µM [4] of 82.8% and a growth at 30 µM (LNCaP [5]) of 49.8%. It also gave a growth at 30 µM (MCF7 [1]) of 24.2%.
Compound `CCCCCCOc1ccccc1N(CC)C(C)=O` has a growth at 30 µM (MCF7 [1]) of 55.5%.
`CCCCCCN(C(C)=O)c1ccc(NC(C)=O)cc1SCc1ccc(C)cc1C` gave an IC50 (MCF7 [3]) of 20.7 µM, a viability at 48 h, 30 µM [4] of 83% and a growth at 30 µM (LNCaP [5]) of 88.5%. It also gave a growth at 30 µM (MCF7 [1]) of 11.1%.
In the case of `O=c1[nH]cc(F)c(=O)[nH]1` [FLUOROURACIL], the Activity (MCF7 [8]) is reported as “Active”, the IC50 (LNCaP [2]) is reported as 5.21 µM and the IC50 (MCF7 [3]) is reported as 3.18 µM. It also gave a viability at 48 h, 30 µM [4] of 86.8%, a growth at 30 µM (LNCaP [5]) of 58.8% and a growth at 30 µM (MCF7 [1]) of 28.3%. For the same compound, the Activity (MCF7 [7]) was “Active”.
For `CCCCCCN(C(C)=O)c1ccccc1SCCC`, the growth at 30 µM (MCF7 [1]) was 47.6%.
`CC(=O)Nc1ccc(N(CC2CCCCC2)C(C)=O)c(SCc2ccc(C)cc2C)c1` showed an IC50 (LNCaP [2]) of 9.71 µM, an IC50 (MCF7 [3]) of 20.8 µM and a viability at 48 h, 30 µM [4] of 79.7%. It also gave a growth at 30 µM (LNCaP [5]) of 23% and a growth at 30 µM (MCF7 [1]) of 9.08%.
Compound `CCCCCCSc1cc([N+](=O)[O-])ccc1N(CCCCCC)C(C)=O` has a viability at 48 h, 30 µM [4] of 111%, a growth at 30 µM (LNCaP [5]) of 92.3% and a growth at 30 µM (MCF7 [1]) of 65.9%.
`CC(=O)N(Cc1ccccc1C)c1ccccc1SCc1ccccc1C` gave a growth at 30 µM (MCF7 [1]) of 13.7%.
Compound `CCOc1ccccc1N(Cc1ccccc1)C(C)=O` has a growth at 30 µM (MCF7 [1]) of 87.6%.
For `CCCCCCSc1ccccc1N(CC)C(C)=O`, the growth at 30 µM (MCF7 [1]) was 67.7%.
For `CCCCCCN(C(C)=O)c1ccc(NC(C)=O)cc1SCC1CCCCC1`, the IC50 (MCF7 [3]) was 20.4 µM, the viability at 48 h, 30 µM [4] was 98.2% and the growth at 30 µM (LNCaP [5]) was 117%. For the same compound, the growth at 30 µM (MCF7 [1]) was 35.9%.
